In patent US20200360531A1, “ANTIBODY DRUG CONJUGATES (ADCS) WITH NAMPT INHIBITORS” (Bayer Aktiengesellschaft, priority 2018, published 2020):
“And” between values parts separate entries of the source, which are not always exact repeats. Equal entries are not always repeated. Where two headings read alike, the source gives them in different places.

Tests used:
[1] = molecular target: T1, human NAMPT (Homo sapiens, UniProt P43490); assay: NAMPT biochemical assay (hNAMPT IC50), cascade assay with NMNAT1 and NAD/NADH-Glo detection; details: Table 2; replicate values on separate lines
T1 construct: N-terminally His6-tagged recombinant full length human NAMPT; His6 (N); made in house; host or cells: E. coli
T1 sequence (P43490 whole entry): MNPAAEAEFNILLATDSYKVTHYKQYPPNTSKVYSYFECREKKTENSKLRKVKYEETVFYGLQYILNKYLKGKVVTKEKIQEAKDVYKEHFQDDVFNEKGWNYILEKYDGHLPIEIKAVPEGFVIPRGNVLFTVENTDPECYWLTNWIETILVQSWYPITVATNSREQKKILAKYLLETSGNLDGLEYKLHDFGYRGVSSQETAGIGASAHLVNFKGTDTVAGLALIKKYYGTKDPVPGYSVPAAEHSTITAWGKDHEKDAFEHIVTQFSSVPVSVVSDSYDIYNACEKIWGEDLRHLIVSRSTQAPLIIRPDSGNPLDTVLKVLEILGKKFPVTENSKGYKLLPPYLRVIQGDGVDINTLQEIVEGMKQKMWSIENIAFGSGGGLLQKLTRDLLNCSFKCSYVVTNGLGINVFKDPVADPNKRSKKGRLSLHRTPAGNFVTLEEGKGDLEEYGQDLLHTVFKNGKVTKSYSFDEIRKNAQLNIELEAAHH
Text: NAMPT Biochemical Assay (hNAMPT IC50)
Nicotinamide phosphoribosyltransferase (NAMPT) inhibitory activity of compounds of the present invention was quantified employing a cascade assay as described in the following paragraphs. The assay couples the conversion of nicotinamide (NAM) to nicotinamide mononucleotide (NMN) by NAMPT with the conversion of NMN to […] adenine dinucleotide (NAD^+) by nicotinamide mononucleotide adenylyltransferase 1 (NMNAT1) and the subsequent quantification of the generated NAD^+ by a commercial detection kit (NAD/NADH-Glo™ Assay from Promega, #G9072).
N-terminally His6-tagged recombinant full length human NAMPT and N-terminally His6-tagged recombinant full length human NMNAT1, both expressed in E. coli and purified via Ni-NTA-affinity chromatography and consecutive size exclusion chromatography, were used as enzymes.
For the assay 50 nl of a 100 fold concentrated solution of the test compound in DMSO was pipetted into a white low volume 384 well microtiter plate (Greiner Bio-One, Frickenhausen, Germany), 2.5 μl of a solution of NAMPT in aqueous NMNAT1-containing assay buffer [50 mM Tris/HCl pH 7.5, 12 mM MgCl2, 0.6 mM adenosine-tri-phosphate (ATP), 1 nM NMNAT1, 0.02% (w/v) bovine serum albumin (Sigma-Aldrich #P7906), 0.001% (v/v) Tween-20 (Sigma-Aldrich #P7949)] were added and the mixture was incubated for 15 min at 22° C. to allow pre-binding of the test compounds to the enzyme before the start of the enzyme reaction. Then the reaction was started by the addition of 2.5 μl of a solution of NAM (300 nM=>final conc. in the 5 μl assay volume is 150 nM, Sigma-Aldrich #^47865) and 5-phosphorylribose-1-pyrophosphate pentasodium salt (PRPP, 1.2 μM=>final conc. in the 5 μl assay volume is 0.6 μM, Sigma-Aldrich P8296) in assay buffer and the resulting mixture was incubated for a reaction time of 20 min at 22° C. The concentration of NAMPT was adjusted depending of the activity of the enzyme lot and was chosen appropriate to have the assay in the linear range, typical final concentration in the 5 μl assay volume was 0.16 nM.
The resulting mixture was incubated 2 h at 22° C. to allow a steady-state of the detection system. Subsequently the generated luminescence was measured in a suitable luminescence reader, e.g. a Viewlux™ (Perkin-Elmer), and taken as a measure for the generated NAD^+.

[2] = tested on: MDA-MB-453; assay: Cell proliferation assay, Cell Titer Glo (CTG) method, MDA-MB-453; type: cell-based
Protocol: (§1) Cell Proliferation Assay for Nampt-ADCs and Nampt-SMOLs
(§2) Cell Titer Glo (CTG) Method
(§3) To this end, 75 μL per well CTG solution (Promega, catalog #G755B and G756B) was added to cells in sister plates, incubated for 10 min, and luminescence was measured on a VICTOR V instrument (Perkin Elmer). After incubation for either 72 or 96 hrs (Table 1) in the presence of test compounds, 100 μl per well CTG solution was added to all test wells, incubated for 10 min and luminescence was measured on a VICTOR V instrument. […] The DRC software is a Biobook Spreadsheet that was developed by Bayer AG and Bayer Business Services on the IDBS E-Workbook Suite platform (IDBS: ID Business Solutions Ltd., Guildford, UK).

[3] = tested on: U251 MG; assay: Cell proliferation assay, Cell Titer Glo (CTG) method, U251 MG; type: cell-based; details: Table 2
Protocol: as §1, §2, §3

[4] = tested on: A549 C4.4a B4; assay: Cell proliferation assay, Cell Titer Glo (CTG) method, A549 C4.4a B4; type: cell-based, human
Protocol: as §1, §2, §3

[5] = tested on: THP-1; assay: Cell proliferation assay, Cell Titer Glo (CTG) method, THP-1; type: cell-based, human; details: Table 2, 72 h
Protocol: as §1, §2, §3

[6] = tested on: human breast and lung cancer cell line-derived in vivo models; details: in vitro and in vivo; cited from earlier work
[7] = tested on: murine renal cell carcinoma model RENCA; details: cited from earlier work
[8] = Homo sapiens, MDA-MB-453, 72 h, Table 2, read-out: MDA-MB-453 72 h IC50
[9] = Homo sapiens, A549, 72 h, Table 2, read-out: A549 C4.4a B4 72 h IC50

Compound	IC50 [1]	IC50 [2, 8] [nM]	IC50 ([3]; Homo sapiens, U-251, 72 h) [nM]	IC50 [4, 9] [nM]	IC50 ([5]; Homo sapiens, THP-1) [nM]	IC50 ([3]; 72 h) [nM]	cytotoxic effects [6]	IC50 ([2]; Table 2, 72 h, read-out: MDA-MB-453 72 h IC50) [nM]	IC50 ([4]; Table 2, 72 h, read-out: A549 C4.4a B4 72 h IC50) [nM]	IC50 [5] [nM]	In vivo efficacy [7]
N#CN=C(NCCCCCCOc1ccc(Cl)cc1)Nc1ccncc1 [CHS-828, N-[6-(4-chlorophenoxy)hexyl]-N′-cyano-N″-4-pyridinyl-guanidine]							highly cytotoxic effects				
O=C(Nc1ccc(-c2cc(-c3ccc4[nH]ncc4c3)c(=O)[nH]n2)cc1)N1Cc2ccncc2C1 [Example 16, N-{4-[5-(1H-indazol-5-yl)-6-oxo-1,6-dihydropyridazin-3-yl]phenyl}-1,3-dihydro-2H-pyrrolo[3,4-c]pyridine-2-carboxamide-hydrogen chloride]	0.323 nM and 0.326 nM	< 0.03	0.0411	23.2	< 0.003	0.057					
O=C(Nc1ccc(-c2cc(-c3ccc4[nH]ccc4c3)c(=O)[nH]n2)cc1)N1Cc2ccncc2C1 [Example 20, N-{4-[5-(1H-indol-5-yl)-6-oxo-1,6-dihydropyridazin-3-yl]phenyl}-1,3-dihydro-2H-pyrrolo[3,4-c]pyridine-2-carboxamide]	0.156 nM and 0.229 nM	< 0.03	< 0.03	6.39	< 0.003						
2 or 3-{[(2R)-2-Amino-2-carboxyethyl]sulfanyl}-4-{[2-({6-[3-{4-[(1,3-dihydro-2H-pyrrolo[3,4-c]pyridine-2-carbonyl)amino]phenyl}-5-(5-methyl-1,3,4-oxadiazol-2-yl)-6-oxopyridazin-1(6H)-yl]hexyl}amino)-2-oxoethyl]amino}-4-oxobutanoic Acid [Example 34M]	1.17 nM and 1.18 nM					> 300		91.2	> 300	> 300	
O=C(Nc1ccc(-c2cc(-c3ccc4cccnc4c3)c(=O)[nH]n2)cc1)N1Cc2ccncc2C1 [Example 24, N-{4-[6-oxo-5-(quinolin-7-yl)-1,6-dihydropyridazin-3-yl]phenyl}-1,3-dihydro-2H-pyrrolo[3,4-c]pyridine-2-carboxamide]	0.241 nM and 0.295 nM	< 0.03	< 0.03	4.92	0.00996						
O=C(/C=C/c1cccnc1)NCCCCC1CCN(C(=O)c2ccccc2)CC1 [daporinad, (E)-N-[4-(I-benzoylpiperidin-4-yl)butyl]-3-(pyridine-3-yl)-acrylamide]											In vivo efficacy of daporinad was shown
Cc1nnc(-c2cc(-c3ccc(NC(=O)N4Cc5ccncc5C4)cc3)nn(CCCCN)c2=O)o1 [Example 8, N-{4-[1-(4-Aminobutyl)-5-(5-methyl-1,3,4-oxadiazol-2-yl)-6-oxo-1,6-dihydropyridazin-3-yl]phenyl}-1,3-dihydro-2H-pyrrolo[3,4-c]pyridine-2-carboxamide]	1.04 nM and 1.32 nM	2.66	28.1	93.5	0.979						
NCCCCCCn1nc(-c2ccc(NC(=O)N3Cc4ccncc4C3)cc2)cc(-c2cccc3ncccc23)c1=O [Example 6, N-{4-[1-(6-Aminohexyl)-6-oxo-5-(quinolin-5-yl)-1,6-dihydropyridazin-3-yl]phenyl}-1,3-dihydro-2H-pyrrolo[3,4-c]pyridine-2-carboxamide]	0.267 nM and 0.288 nM	< 0.03	< 0.03	11	< 0.003						
NCCCCn1nc(-c2ccc(NC(=O)N3Cc4ccncc4C3)cc2)cc(-c2ccc3cccnc3c2)c1=O [Example 25, N-{4-[1-(4-Aminobutyl)-6-oxo-5-(quinolin-7-yl)-1,6-dihydropyridazin-3-yl]phenyl}-1,3-dihydro-2H-pyrrolo[3,4-c]pyridine-2-carboxamide]	0.803 nM and 1.15 nM	< 0.03	0.428	57.1	0.0227						
O=C(Nc1ccc(-c2cc(-c3cccc4[nH]ncc34)c(=O)[nH]n2)cc1)N1Cc2ccncc2C1 [Example 18, N-{4-[5-(1H-indazol-4-yl)-6-oxo-1,6-dihydropyridazin-3-yl]phenyl}-1,3-dihydro-2H-pyrrolo[3,4-c]pyridine-2-carboxamide]	0.213 nM and 0.226 nM	< 0.03	< 0.03	58.5	≤ 0.003	0.0428					

The next lines start with results.

IC50 [1]	IC50 [2, 8] [nM]	IC50 ([3]; Homo sapiens, U-251, 72 h) [nM]	IC50 [4, 9] [nM]	IC50 ([5]; Homo sapiens, THP-1) [nM]	IC50 ([3]; 72 h) [nM]	Compound	cytotoxic effects [6]	IC50 ([2]; Table 2, 72 h, read-out: MDA-MB-453 72 h IC50) [nM]	IC50 ([4]; Table 2, 72 h, read-out: A549 C4.4a B4 72 h IC50) [nM]	IC50 [5] [nM]	In vivo efficacy [7]
2.77 nM and 3.2 nM	0.436	43.7	227	0.447		NCCCCN1N=C(c2ccc(NC(=O)N3Cc4ccncc4C3)cc2)C[C@](c2cccc3ncccc23)(C(F)(F)F)C1=O [Example 13, N-{4-[(5R)-1-(4-aminobutyl)-6-oxo-5-(quinolin-5-yl)-5-(trifluoromethyl)-1,4,5,6-tetrahydropyridazin-3-yl]phenyl}-1,3-dihydro-2H-pyrrolo[3,4-c]pyridine-2-carboxamide]					
0.358 nM and 0.389 nM	0.0943	8.87	267	0.00471		Cc1nnc(-c2cc(-c3ccc(NC(=O)N4Cc5ccncc5C4)cc3)nn(CCCCCCN)c2=O)o1 [Example 10, N-{4-[1-(6-Aminohexyl)-5-(5-methyl-1,3,4-oxadiazol-2-yl)-6-oxo-1,6-dihydropyridazin-3-yl]phenyl}-1,3-dihydro-2H-pyrrolo[3,4-c]pyridine-2-carboxamide]					
0.218 nM and 0.346 nM	< 0.03	0.642	12.4	0.0385		O=C1NN=C(c2ccc(NC(=O)N3Cc4ccncc4C3)cc2)CC1c1ccc2[nH]ncc2c1 (centres unmarked) [Example 17, N-{4-[5-(1H-indazol-5-yl)-6-oxo-1,4,5,6-tetrahydropyridazin-3-yl]phenyl}-1,3-dihydro-2H-pyrrolo[3,4-c]pyridine-2-carboxamide]					
0.457 nM and 0.717 nM	0.0357	4.34	97.2	1.21		Cc1nnc(-c2cc(-c3ccc(NC(=O)N4Cc5ccncc5C4)cc3)n[nH]c2=O)o1 [Example 9, N-{4-[5-(5-methyl-1,3,4-oxadiazol-2-yl)-6-oxo-1,6-dihydropyridazin-3-yl]phenyl}-1,3-dihydro-2H-pyrrolo[3,4-c]pyridine-2-carboxamide]					
0.393 nM and 0.47 nM	< 0.03	< 0.03	40.5	< 0.003		O=C1NN=C(c2ccc(NC(=O)N3Cc4ccncc4C3)cc2)CC1c1ccc2[nH]ccc2c1 (centres unmarked) [Example 21, N-{4-[5-(1H-Indol-5-yl)-6-oxo-1,4,5,6-tetrahydropyridazin-3-yl]phenyl}-1,3-dihydro-2H-pyrrolo[3,4-c]pyridine-2-carboxamide]					
1.02 nM and 1.2 nM	0.299	8.95	> 300	0.995		Cc1nnc(C2CC(c3ccc(NC(=O)N4Cc5ccncc5C4)cc3)=NNC2=O)o1 (centres unmarked) [Example 7, N-{4-[5-(5-Methyl-1,3,4-oxadiazol-2-yl)-6-oxo-1,4,5,6-tetrahydropyridazin-3-yl]phenyl}-1,3-dihydro-2H-pyrrolo[3,4-c]pyridine-2-carboxamide]					
